Source: ChEMBL document CHEMBL5608181, “Discovery of indazole inhibitors for heat shock protein 90 as anti-cancer agents” (Eur J Med Chem, 2024)
Calls of active or inactive are those of the source. The rule behind the calls is not given here.

Assays:
HEK293 = experiment: Cytotoxicity against HEK293 cells assessed as reduction in cell viability at 10 uM measured after 72 hrs by CellTiter 96 Aqueous One Solution Cell Proliferation Assay; type: toxicity, cell-based; settings: human, hek293, 72 h
JIMT-1 = experiment: Antiproliferative activity against human JIMT-1 cells assessed as inhibition of cell viability at 10 uM measured after 72 hrs by CellTiter 96 Aqueous One Solution Cell Proliferation Assay; type: functional, cell-based
BT-474 [1] = experiment: Antiproliferative activity against human BT-474 cells assessed as inhibition of cell viability at 10 uM measured after 72 hrs by CellTiter 96 Aqueous One Solution Cell Proliferation Assay; type: functional, cell-based
CYP1A2 = molecular target: T1, CYP1A2 (Homo sapiens, UniProt P05177); experiment: Inhibition of CYP1A2 (unknown origin) at 10 uM relative to control; type: ADME
T1 sequence (P05177 whole entry): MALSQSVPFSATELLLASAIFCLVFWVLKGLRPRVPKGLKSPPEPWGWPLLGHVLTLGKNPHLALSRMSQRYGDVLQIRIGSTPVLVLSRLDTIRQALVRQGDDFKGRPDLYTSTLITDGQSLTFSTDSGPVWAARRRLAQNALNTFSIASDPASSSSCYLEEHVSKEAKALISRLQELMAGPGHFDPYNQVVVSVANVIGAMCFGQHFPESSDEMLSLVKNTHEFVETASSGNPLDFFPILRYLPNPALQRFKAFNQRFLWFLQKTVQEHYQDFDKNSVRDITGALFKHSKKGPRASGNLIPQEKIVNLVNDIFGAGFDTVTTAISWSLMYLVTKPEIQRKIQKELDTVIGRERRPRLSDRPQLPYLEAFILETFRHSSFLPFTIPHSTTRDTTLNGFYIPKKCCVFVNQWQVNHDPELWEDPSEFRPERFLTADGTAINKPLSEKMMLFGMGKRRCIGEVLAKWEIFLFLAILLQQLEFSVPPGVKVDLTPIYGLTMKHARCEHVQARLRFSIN

CYP2C9 = CYP2C9 (Homo sapiens, UniProt P11712); experiment: Inhibition of CYP2C9 (unknown origin) at 10 uM relative to control; type: ADME
CYP3A4 = CYP3A4 (Homo sapiens, UniProt P08684); experiment: Inhibition of CYP3A4 (unknown origin) at 10 uM relative to control; type: ADME
CYP2C19 = CYP2C19 (Homo sapiens, UniProt P33261); experiment: Inhibition of CYP2C19 (unknown origin) at 10 uM relative to control; type: ADME
BT-474 [2] = experiment: Antiproliferative activity against human BT-474 cells assessed as inhibition of cell viability at 10 uM measured after 72 hrs by CellTiter 96 Aqueous One Solution Cell Proliferation Assay relative to control; type: functional
Homo sapiens = species on record: Homo sapiens; experiment: Inhibition of N-terminal HSP90 (unknown origin) at 10 uM by AlphaLISA assay

Sequence of CYP2C19 (P33261 whole entry): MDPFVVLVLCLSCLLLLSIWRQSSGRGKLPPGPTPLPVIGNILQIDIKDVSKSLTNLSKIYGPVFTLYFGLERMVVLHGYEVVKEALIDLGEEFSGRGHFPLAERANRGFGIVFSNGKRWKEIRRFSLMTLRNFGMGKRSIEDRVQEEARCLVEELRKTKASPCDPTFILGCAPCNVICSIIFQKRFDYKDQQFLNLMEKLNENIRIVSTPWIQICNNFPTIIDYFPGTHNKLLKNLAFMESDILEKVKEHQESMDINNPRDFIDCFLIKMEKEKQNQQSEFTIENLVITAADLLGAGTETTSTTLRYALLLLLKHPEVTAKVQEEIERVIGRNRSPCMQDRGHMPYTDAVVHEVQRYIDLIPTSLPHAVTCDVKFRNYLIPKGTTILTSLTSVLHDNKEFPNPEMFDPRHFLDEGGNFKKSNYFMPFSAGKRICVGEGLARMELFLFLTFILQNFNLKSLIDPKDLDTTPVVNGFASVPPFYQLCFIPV
Sequence of CYP2C9 (P11712 whole entry): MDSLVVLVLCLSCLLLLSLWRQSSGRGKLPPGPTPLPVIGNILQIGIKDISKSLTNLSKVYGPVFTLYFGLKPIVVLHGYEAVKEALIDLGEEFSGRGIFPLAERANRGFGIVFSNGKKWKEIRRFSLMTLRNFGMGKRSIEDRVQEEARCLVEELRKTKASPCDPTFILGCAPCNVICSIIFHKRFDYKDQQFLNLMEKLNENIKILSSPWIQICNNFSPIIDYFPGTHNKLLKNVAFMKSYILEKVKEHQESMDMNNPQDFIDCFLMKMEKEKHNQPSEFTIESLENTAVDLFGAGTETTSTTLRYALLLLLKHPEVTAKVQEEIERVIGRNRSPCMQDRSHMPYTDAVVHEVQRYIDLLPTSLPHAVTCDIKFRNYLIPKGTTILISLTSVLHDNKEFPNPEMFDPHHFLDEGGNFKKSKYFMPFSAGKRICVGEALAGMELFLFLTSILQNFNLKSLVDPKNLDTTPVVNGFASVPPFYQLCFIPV
Sequence of CYP3A4 (P08684 whole entry): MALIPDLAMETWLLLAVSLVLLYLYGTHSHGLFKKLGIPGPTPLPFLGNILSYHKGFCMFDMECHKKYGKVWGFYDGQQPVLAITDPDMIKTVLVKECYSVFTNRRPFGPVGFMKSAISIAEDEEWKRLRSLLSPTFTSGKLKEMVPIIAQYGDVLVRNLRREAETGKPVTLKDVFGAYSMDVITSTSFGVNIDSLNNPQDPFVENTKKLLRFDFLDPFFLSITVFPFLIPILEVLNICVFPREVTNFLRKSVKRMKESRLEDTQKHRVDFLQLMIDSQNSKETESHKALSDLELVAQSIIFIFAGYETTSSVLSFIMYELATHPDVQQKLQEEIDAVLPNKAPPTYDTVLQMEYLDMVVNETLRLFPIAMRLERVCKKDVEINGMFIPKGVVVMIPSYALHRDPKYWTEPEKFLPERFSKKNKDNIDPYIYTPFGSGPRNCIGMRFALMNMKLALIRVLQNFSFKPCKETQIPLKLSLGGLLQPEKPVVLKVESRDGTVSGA

**Q.** For `COCCn1cc(NC(=O)c2ccc3c(c2OC)C=CC(C)(C)O3)c2cncnc21`, which Activity (HEK293) is on record?
**A.** Toxic

**Q.** What about the Activity (JIMT-1) of the same compound?
**A.** Active

**Q.** What about the Activity (BT-474 [1]) of the same compound?
**A.** Active

**Q.** `CC(=O)N1CCN(c2ccc(OCC3COC(Cn4ccnc4)(c4ccc(Cl)cc4Cl)O3)cc2)CC1` (stereo not drawn) [KETOCONAZOLE] was tested. Which inhibition at 10 µM (CYP1A2) did it give?
**A.** > 100%

**Q.** And the inhibition at 10 µM (CYP2C9)?
**A.** 96.8%

**Q.** And the inhibition at 10 µM (CYP3A4)?
**A.** 32%

**Q.** What about the inhibition at 10 µM (CYP2C19) of the same compound?
**A.** > 100%

**Q.** For `COc1c(C(=O)Nc2nn(CCC3CCN(C)CC3)c3ccccc23)ccc2c1C=CC(C)(C)O2`, which inhibition at 10 µM (BT-474 [2]) is on record?
**A.** > 50%

**Q.** Which Activity (HEK293) does the source give for `COCCn1cc(NC(=O)c2ccc3c(c2OC)C=CC(C)(C)O3)c2cccnc21` here?
**A.** Toxic

**Q.** What about the Activity (JIMT-1) of the same compound?
**A.** Active

**Q.** And the Activity (BT-474 [1])?
**A.** Active

**Q.** Which inhibition at 10 µM (BT-474 [2]) does the source give for `COc1c(C(=O)Nc2ccc3c(C)nn(CCN4CCOCC4)c3c2)ccc2c1C=CC(C)(C)O2` here?
**A.** > 50%

**Q.** For `CC(C)c1cc(C(=O)N2Cc3ccc(CN4CCN(C)CC4)cc3C2)c(O)cc1O`, which inhibition (Homo sapiens) is on record?
**A.** Active
